Results taken from US10040822B2, “Neuroprotective composition and method of use” (Brown University, priority 2012, dated 2018).
Where no end group is shown, it is not given here.

Assays:
spinal cord injury = assay: Spinal cord injury patient treated i.v. with polyarginine (Example 8); type: in vivo, human; conditions: Example 8, spinal cord injury patient, i.v. 0.15 mg/kg every other day for 30 days
Description: A person presents with a spinal cord injury following an automobile accident. The subject is conscious but unable to move their legs. […] A Th(11)-L(2) laminectomy is performed along with retrieval of foreign bodies and dura repair. Upon admission the patient is administered an i.v. containing R(7)C-s-s-C (“R(7)C” disclosed as SEQ ID NO: 12) peptide at 0.15 mg/kg.

stroke = assay: Stroke patient treated i.v. with polyarginine (Examples 1, 2); type: in vivo, human
Description: A person enters the emergency room and is diagnosed with an ischemic event involving the middle cerebral artery, with symptomatology onset being under 1 hr. Immediately, the patient was administered an i.v. supplemented with poly-arginine (R(7)C-s-s-C (“R(7)C” disclosed as SEQ ID NO: 12), 5 mg/kg) while blood supply to the restricted area is restored.
A person is revived following stoke in their home by EMS and is rushed to the nearest hospital 80 miles away. Upon arriving at the hospital it is determined that the patient is showing signs of weakness on their left side. […] They are immediately started an i.v. and administered poly arginine (R(7) (SEQ ID NO: 5))@ 4 mg/kg/hr over a period of 5 days to arrest post-stroke neuronal damage. The patient is monitored for recovery signs.

Traumatic Brain Injury = assay: TBI patient treated i.v. with polyarginine (Example 3); type: in vivo, human; conditions: Example 3, severe concussion patient, i.v. 0.05 mg/kg, 3-5 days
Description: A high school football player is rushed to the emergency room of a local hospital suffering from a severe concussion following a helmet to helmet impact with an opposing player. The patient is initially unconscious on the field for over 20 min. EMS personnel arrived to find the patient responding to stimuli, but completely disoriented and unable to coordinate muscle movement, articulate speech or focus eye movements. Upon arriving at the ER, the patient is administered an i.v. containing R(7)C-s-s-C (“R(7)C” disclosed as SEQ ID NO: 12) peptide at 0.05 mg/kg. Delivery of the peptide continued until brain swelling resulting from the impact returns to normal state (3-5 days). Without being bound by any particular theory, the therapeutic is to arrest neuronal cell death resulting from these documented post-traumatic effects.

retinal neurons = assay: Uptake of fluorescent-tagged peptides into retinal neurons after injection into the vitreal chamber; type: in vivo; conditions: intravitreal, rat
Description: Attention is drawn to the uptake into brain tissues under in vivo conditions Fluorescent-tagged R(7) (SEQ ID NO: 5) and C-s-s-CR(7) (“CR(7)” disclosed as SEQ ID NO: 8) were injected into the vitreal chamber of a rat eyes and analyzed for specific uptake into retinal neurons at multiple time points post-injection. […] At longer time points (2-4 hrs post injection) the accumulation of the labeled peptides accumulated within the cytoplasm of the majority of neurons in the inner half of the retina with preferential accumulations being localized to small membrane-bound organelles surrounding the nucleus of both ganglion cells and amacrine cells as well as in exiting ganglion cell axons.

[1] = tested on: neurons in the spinal cord and in the brain; assay: Intrathecal and intraventricular injection of fluorescent-tagged peptides, distribution in spinal cord and brain; type: in vivo; conditions: fluorescent-tagged peptide
Excerpt: Testing addressed intrathecal and intraventricular injection of fluorescent-tagged R(7) (SEQ ID NO: 5) and C-s-s-C-R(7) (“C-R(7)” disclosed as SEQ ID NO: 8). […] This approach is a workable option for quick delivery to prevent both stroke or traumatic injury to these tissues.

[2] = tested on: NMDA-insult to the retina; assay: In vivo rat retinal toxicity model of NMDA-induced chemical stroke; conditions: for long-term protection against NMDA-induced retinal ganglion cell death: 14-21 day post-insult, single dosing; for long-term protection against NMDA-induced retinal ganglion cell death / short-term protection against NMDA-insult / NMDA-induced loss of plasma membrane selectivity in NMDA-receptive neurons / NMDA-induced caspase activation / NMDA-induced mitochondrial-induced oxidative stress in the retina / NMDA-induced poly-(ADP)ribosylolation: rat retina; for short-term neuronal cell death signaling: compound administered simultaneously with NMDA-induced chemical stroke; for NMDA-induced loss of plasma membrane selectivity in NMDA-receptive neurons: out to 8 hrs post-insult, compound given simultaneously with NMDA; for NMDA-induced caspase activation / NMDA-induced mitochondrial-induced oxidative stress in the retina / NMDA-induced poly-(ADP)ribosylolation: short-term, 2-4 hrs post-NMDA-insult
Excerpt: 7. Blockade of PARP activity attenuates poly(ADP-ribosyl)ation but offers only partial neuroprotection against NMDA-induced cell death in the rat retina. (Goebel and Winkler, J Neuro Chem, 98:1732-1745, 2006) (NMDA-induced chemical stroke in vivo rat retinal neurotoxicity model).
In a test model, the retina was protected from NMDA-induced chemical stroke. […] The compositions of this invention are useful in a variety of clinical situations, most of which are characterized by neurological insult or cellular insult typified by mitochondrial damage. Without being bound by any particular theory, untreated mitochondrial damage is believed to lead to generation of free radical species. The compositions of this invention appear to avert or curtail oxidative stress in the retina following NMDA-insult by reducing mitochondrial originated free radical generation. Without being bound by any particular theory, such activity is believed to be significant in neuroprotection arising from the compositions of this invention.
Data establish that the compounds of the present invention protect the neural tissue (retina) against a strong NMDA-insult, with particular reference to R(7) (SEQ ID NO: 5), CR(7) (SEQ ID NO: 8) and C-s-s-CR(7) (“CR(7)” disclosed as SEQ ID NO: 8).

glaucoma = assay: Glaucoma patient treated with CR(7) eye drops (Example 9); type: in vivo, human; conditions: Example 9, glaucoma patient, eye drops 1.25 μg per 20 μl drop, two drops morning and night, chronic
Description: A person presents with a complaint of blurry vision in their left eye for 1 week. Their IOP is above 21 mmHg. A diagnosis of glaucoma is made.
Effort is made to surgically reduce IOP. In post-surgical monitoring, IOP levels remain above normal excepted levels. To prevent retinal damage resulting from the prolonged exposure to elevated IOP. the patient is administered CR(7) (SEQ ID NO: 8) in the form of eye drops suspended in a corneal penetrating lipophilic suspension. Each 20 μl drop contains 1.25 μg of CR(7) (SEQ ID NO: 8) The total applied/treatment is 2.5 μg. Two drops are administered morning and two drops at night

HEK293 cells = assay: Cultured HEK293 cells pretreated with peptide, chemically induced excitotoxic challenge, mitochondrial readouts; type: cell-based; conditions: for oxidative stress following excitotoxic challenge / stress-induced hyperpolarization of the mitochondrial membrane potentials: HEK293 cells pretreated with peptide, compared with sham-treated controls; for mitochondrial oxidative stress: further studies by the applicant's group, system not given
[3] = Example 2, post-stroke patient, i.v. 4 mg/kg/hr over 5 days, observed over the next 30 days

| Compound | long-term protection against NMDA-induced retinal ganglion cell death [2] | short-term protection against NMDA-insult [2] | oxidative stress following excitotoxic challenge (HEK293 cells) | stress-induced hyperpolarization of the mitochondrial membrane potentials (HEK293 cells) | mitochondrial oxidative stress (HEK293 cells) | short-term neuronal cell death signaling [2] | NMDA-induced loss of plasma membrane selectivity in NMDA-receptive neurons [2] | NMDA-induced caspase activation [2] | NMDA-induced mitochondrial-induced oxidative stress in the retina [2] | NMDA-induced poly-(ADP)ribosylolation [2] | further results |
| --- | --- | --- | --- | --- | --- | --- | --- | --- | --- | --- | --- |
| R(7)C-s-s-C: R(7)C (SEQ ID NO: 12) with second cysteine linked by disulfide to the terminal cysteine (RRRRRRRC(Cys); also: extra cysteine disulfide-linked to Cys8) |  |  |  |  |  |  |  |  |  |  | recovery of leg movement (spinal cord injury): substantial ability to move their legs is returned; CT/MRI imaging of the affected region (stroke; Example 1, ischemic stroke patient, i.v. 5 mg/kg): no signs of lesioning in the affected region; daily testing of cognitive and motor systems (stroke; Example 1, ischemic stroke patient, i.v. 5 mg/kg, onset under 1 hr): no deficits in physical or mental capacities; TBI and post-concussion symptoms (Traumatic Brain Injury): remains symptom free of TBI and post-concussion effects |
| Fluorescent-tagged R(7): Fluorescent-tagged R(7) (SEQ ID NO: 5) (RRRRRRR; also: fluorescent tag, position not given here) |  |  |  |  |  |  |  |  |  |  | accumulation in retinal neurons and glia cells of ganglion and inner nuclear layers (retinal neurons; fluorescent-tagged peptide, 30 min following injection): significant accumulations; subcellular localisation of labeled peptide (double labeling) (retinal neurons; 2-4 hrs post injection): majority of these labeled puncta colocalize with mitochondrial-specific markers |
| fluorescent-tagged CR(7): fluorescent-tagged CR(7) (SEQ ID NO: 8) (CRRRRRRR; also: fluorescent tag, position not given here) |  |  |  |  |  |  |  |  |  |  | accumulation in neurons of spinal cord and brain [1]: Preferential accumulation was noted in the neurons located within the hippocampus and cerebral cortex; crossing of the pia matter glial barrier [1]: readily crosses the pia matter glial barrier |
| R(7)-C: 7 arginine peptide with C-terminus cysteine (SEQ ID NO: 12) (RRRRRRRC; MOD_RES (1)..(7) Residues may be D or L configuration) | both short and long-term protection | both short and long-term protection |  |  |  |  |  |  |  |  |  |
| d-C-s-s-dCdR(7): d-isomer of C-s-s-CR(7) (CRRRRRRR; D-amino acids, disulfide-linked; MOD_RES (1)..(7) Residues are D configuration) | full short- and long-term neuroprotection | full short- and long-term neuroprotection |  |  |  |  |  |  |  |  |  |
| C-R-R-R-R-R-R-R (CRRRRRRR) [CR(7)] | not significantly different from results obtained from untreated or sham-treated control retinas |  | significant attenuation | significant attenuation | significantly prevented | block | blocked | fully block | fully block | fully block | progression of neuronal cell death (glaucoma): no progression of neuronal cell death is detected; neuroprotection ([2]; general statement, retina, NMDA-insult): effective when the peptide is made with either l- or d-amino acids |
| N=C(N)NCCCC(NC(=O)[C@H](CCCNC(=N)N)NC(=O)C(N)CSSC[C@H](N)C(=O)O)C(=O)N[C@@H](CCCNC(=N)N)C(=O)NC(CCCNC(=N)N)C(=O)N[C@@H](CCCNC(=N)N)C(=O)NC(CCCNC(=N)N)C(=O)N[C@@H](CCCNC(=N)N)C(N)=O (stereo partly shown) [C-s-s-CR(7), C-s-s-C-R-R-R-R-R-R-R] | not significantly different from results obtained from untreated or sham-treated control retinas |  | significant attenuation | significant attenuation | significantly prevented | block | blocked | fully block | fully block | fully block |  |
| d-CdR(7): d-isomer of CR(7) (SEQ ID NO: 13) (CRRRRRRR; D-amino acids; MOD_RES (1)..(7) Residues are D configuration) | full short- and long-term neuroprotection | full short- and long-term neuroprotection |  |  |  |  |  |  |  |  |  |
| RRRRRRR [R(7)] | less effective | full short-term protection | significant attenuation | significant attenuation | significantly prevented | block | blocked | fully block | fully block | fully block | muscle tone and limb recovery (stroke; [3]): increased muscle tone on the left side; speech pattern recovery (stroke; [3]): Improvement in their speech pattern |
